Measured values: patent publication US9453226B2, “Protection of cells from Alu-RNA-induced degeneration and inhibitors for protecting cells” (UNIVERSITY OF KENTUCKY RESEARCH FOUNDATION, priority 2011, dated 2016)
“Also recorded” adds a separate entry of the source. Like-named read-outs stand apart in the source and are kept apart here. *: point of attachment. Cbz = O=C(OCc1ccccc1)*; CH2F = FC*

Legend:
[1] = system: RPE; assay: Alu RNA-induced RPE degeneration in wild-type mice, inhibitors given intravitreously; type: in vivo; conditions: WT mice, subretinal Alu RNA, inhibitor intravitreous
Method: (§1) Subretinal injection and imaging. Subretinal injections (1 μL) were performed using a Pico-Injector (PLI-100, Harvard Apparatus). Plasmids were transfected in vivo using 10% Neuroporter (Genlantis). Fundus imaging was performed on a TRC-50 IX camera (Topcon) linked to a digital imaging system (Sony). RPE flat mounts were immunolabeled using antibodies against zonula occludens-1 (Invitrogen).
(§2) Retinal photographs of dilated mouse eyes were taken with a TRC-50 IX camera (Topcon) linked to a digital imaging system (Sony).
(§3) Human eyes fixed in 2-4% paraformaldehyde were prepared as eyecups, cryoprotected in 30% sucrose, embedded in optimal cutting temperature compound (Tissue-Tek OCT; Sakura Finetek), and cryosectioned into 10 μm sections. Depigmentation was achieved using 0.25% potassium permanganate and 0.1% oxalic acid. Immunohistochemical staining was performed with the rabbit antibody against NLRP3 (1:100, Sigma Aldrich) or rabbit antibody against Caspase-1 (prediluted, AbCam). Isotype IgG was substituted for the primary antibody to assess the specificity of the staining. Bound antibody was detected with biotin-conjugated secondary antibodies, followed by incubation with ABC reagent and visualized by Vector Blue (Vector Laboratories). Levamisole (Vector Laboratories) was used to block endogenous alkaline phosphatase activity. Slides were washed in PBS, counterstained with neutral red (Fisher Scientific), rinsed with deionized water, air dried, and then mounted in Vectamount (Vector Laboratories). Fluorescent labeling of human tissue was performed with the rabbit antibody against PYCARD (1:50, Clone N-15, Santa Cruz Biotechnology) Immunolabeling was visualized by fluorescently conjugated anti-rabbit secondary antibody (Invitrogen). Tissue autofluorescence was quenched by incubating the sections in 0.3% Sudan black (Fisher Scientific). Sections were mounted in Vectashield with DAPI (Vector Laboratories). Mouse RPE/choroid flat mounts were fixed with 4% paraformaldehyde or 100% methanol, stained with rabbit antibodies against human zonula occludens-1 (1:100, Invitrogen) and visualized with Alexa594 (Invitrogen). All images were obtained using the Leica SP-5 or Zeiss Axio Observer Z1 microscopes.
(§4) Subretinal injections (1 μL) in mice were performed using a Pico-Injector (PLI-100, Harvard Apparatus). In vivo transfection of plasmids coding for two different Alu sequences (pAlu) or empty control vector (pNull) (Bennett et al., 2008; Kaneko et al., 2011; Shaikh et al., 1997) was achieved using 10% Neuroporter (Genlantis). AAV1-BEST1-Cre (Alexander and Hauswirth, 2008) or AAV1-BEST1-GFP were injected at 1.0×10^11 pfu/mL and in vitro transcribed Alu RNA was injected at 0.3 mg/mL.
(§5) siRNAs formulated in siRNA buffer (20 mM KCL, 0.2 mM MgCl2 in HEPES buffer at pH 7.5; Dharmacon) or phosphate buffered saline (PBS; Sigma-Aldrich); the TLR4 antagonist Ultra Pure Rhodobacter sphaeroides LPS (LPS-RS, InvivoGen), a peptide inhibitor of MyD88 homodimerization IMG-2005 (IMGENEX), control inhibitor (IMGENEX), recombinant IL-18 (Medical & Biological Laboratories), neutralizing rat antibodies against mouse IL-1β (IMGENEX), neutralizing rat antibodies against mouse IL-18 (Medical & Biological Laboratories), isotype control IgGs (R&D Systems or eBioscience as appropriate), Caspase-1 inhibitor Z-WEHD-FMK (R&D Systems), Caspase control inhibitor Z-FA-FMK (R&D Systems), DPI (Enzo Life Sciences), Mito-TEMPO (Enzo Life Sciences), MitoQ and dTPP (both adsorbed to cyclodextrin and provided by M.P. Murphy, MRC Mitochondrial Biology Unit), and gp91ds-tat and scrambled gp91 ds-tat (both Anaspec), were dissolved in phosphate buffered saline (PBS; Sigma-Aldrich) or dimethyl sulfoxide (DMSO; Sigma-Aldrich), and injected into the vitreous humor in a total volume of 1 μL with a 33-gauge Exmire microsyringe (Ito Corporation). […] As a control, Luc siRNA-chol (17+2 nt) was used with identical dosages.

[2] = system: NLRP3 and IL18 mRNAs; assay: NLRP3 and IL18 mRNA in human RPE cells (real-time RT-PCR); type: cell-based
Description: Transcript abundance was quantified by real-time RT-PCR using an Applied Biosystems 7900 HT Fast Real-Time PCR system by the 2^−ΔΔCt method.
Total RNA was extracted from tissues or cells using Trizol reagent (Invitrogen) according to manufacturer's recommendations, DNase treated and reverse transcribed (QuantiTect, Qiagen). The RT products (cDNA) were amplified by real-time quantitative PCR (Applied Biosystems 7900 HT Fast Real-Time PCR system) with Power SYBR green Master Mix. Oligonucleotide primers specific for human IL1B (forward 5′-[…]-3′ and reverse 5′-[…]-3′), human IL18 (forward 5′-[…]-3′ and reverse 5′-[…]-3′), human NLRP3 (forward 5′-[…]-3′ and reverse 5′-[…]-3′), human PYCARD (forward 5′-[…]-3′ and reverse 5′-[…]-3′), human VDAC1 (forward 5′-[…]-3′ and reverse 5′-[…]-3′), human VDAC2 (forward 5′-[…]-3′ and reverse 5′-[…]-3′), human VDAC3 (forward 5′-[…]-3′ and reverse 5′-[…]-3′), human 18S rRNA (forward 5′-[…]-3′ and reverse 5′-[…]-3′), mouse Myd88 (forward 5′-[…]-3′ and reverse 5′-[…]-3′), mouse Nlrp3 (forward 5′-[…]-3′ and reverse 5′-[…]-3′), mouse Il18 (forward 5′-[…]-3′ and reverse 5′-[…]-3′), and mouse 18S rRNA (forward 5′-[…]-3′ and reverse 5′-[…]-3′) were used. The QPCR cycling conditions were 50° C. for 2 min, 95° C. for 10 min followed by 40 cycles of a two-step amplification program (95° C. for 15 s and 58° C. for 1 min). At the end of the amplification, melting curve analysis was applied using the dissociation protocol from the Sequence Detection system to exclude contamination with unspecific PCR products. […] For negative controls, no RT products were used as templates in the QPCR and verified by the absence of gel-detected bands. Relative expressions of target genes were determined by the 2^−ΔΔCt method.

[3] = system: RPE; assay: pAlu-induced RPE degeneration in wild-type mice, inhibitors given intravitreously; type: in vivo; conditions: WT mice, subretinal pAlu, inhibitor intravitreous, fundus photographs and ZO-1 flat mounts
Method: as §1, §2, §3, §4
as §5, with “dosages. […]” for “dosages.”

[4] = system: human RPE cells; conditions: peptide 100 μM
Method: All cell cultures were maintained at 37° C. and 5% CO2. Primary mouse RPE cells were isolated as previously described (Yang et al., 2009) and grown in Dulbecco Modified Eagle Medium (DMEM) supplemented with 20% FBS and standard antibiotics concentrations. Primary human RPE cells were isolated as previously described (Yang et al., 2008) and maintained in DMEM supplemented with 10% FBS and antibiotics. HeLa cells were maintained in DMEM supplemented with 20% FBS and standard antibiotics concentrations. THP-1 cells were cultured in RPMI 1640 medium supplemented with 10% FBS and antibiotics.
(§6) MTS assays were performed using the CellTiter 96 AQueous One Solution Cell Proliferation Assay (Promega) according to the manufacturer's instructions. For examining the cytoprotective effect of glycine in Alu RNA induced cell death, human RPE cells were transfected with pNull/pAlu. At 6 h post-transfection the cells were incubated with complete media containing glycine (5 mM) or vehicle, and cell viability was assessed after 24 h. Similarly, human RPE cells primed with LPS (5 μg/ml for 6 h) were treated with ATP (25 μM) in the presence of glycine containing media (5 mM). 30 min post ATP cell viability was assessed as described above.
MTS assays were performed using the CellTiter 96 AQueous One Solution Cell Proliferation Assay (Promega) according to the manufacturer's instructions.

[5] = system: human RPE cells; conditions: glycine 5 mM, LPS 5 μg/ml 6 h, ATP 25 μM
Method: as §6

Row | Compound | Alu RNA-induced RPE degeneration [1] | pAlu-induced RPE degeneration [3] | also measured
1 | c1ccc([I+]c2ccccc2)cc1 [DPI, diphenyliodonium] | blocked | protects | pAlu-induced NLRP3 and IL18 mRNA upregulation [2]: blocks; also recorded: blocked pAlu-induced NLRP3 and IL18 mRNA upregulation
2 | DRQIKIWFQNRRMKWKK [control peptide] | did not do so |  | 
3 | CC1(C)CC(NC(=O)C[P+](c2ccccc2)(c2ccccc2)c2ccccc2)CC(C)(C)N1[O] [Mito-TEMPO] | blocked |  | Alu RNA-induced RPE degeneration ([1]; listed as MitoTempo): prevent
4 | Cbz-IETD-CH2F |  | blocked RPE degeneration | pAlu-induced cytotoxicity in human RPE cells [4]: inhibited human RPE cell death; also recorded: protects; pAlu-induced RPE degeneration ([3]; listed as Caspase-8 inhibitor): protects
5 | NCC(=O)O [glycine] |  |  | human RPE cell death induced by LPS+ATP [5]: inhibited; human RPE cell death induced by LPS+ATP ([5]; listed as Glycine): inhibits
6 | COC1=C(OC)C(=O)C(CCCCCCCCCC[P+](c2ccccc2)(c2ccccc2)c2ccccc2)=C(C)C1=O [MitoQ] | prevent; also recorded: blocked |  | 
